Test [1] relates to Porphyromonas gingivalis. The test is described as follows: Inhibition of Porphyromonas gingivalis recombinant SerB653 phosphatase expressed in Escherichia coli BL21 using phosphoserine as substrate at 50 uM after 1 hr by malachite green colorimetric assay.
The test system of test [2] is Porphyromonas gingivalis. Description: Antibacterial activity against Porphyromonas gingivalis ATCC 33277 after 2 hrs by broth microdilution method. The following applies: ATCC 33277, 2 h. The class given is functional. For orientation: Dilution methods test growth across graded concentrations, often in twofold steps.
A short description of test [3]: Inhibition of Porphyromonas gingivalis recombinant SerB653 phosphatase expressed in Escherichia coli BL21 using phosphoserine as substrate measured every 10 secs by malachite green colorimetric assay.
The nature of test [4]: Inhibition of Porphyromonas gingivalis recombinant SerB653 phosphatase expressed in Escherichia coli BL21 using phosphoserine as substrate after 1 hr by malachite green colorimetric assay.
The subject of test [5] is Porphyromonas gingivalis. The test is described as follows: Competitive inhibition of Porphyromonas gingivalis recombinant SerB653 phosphatase expressed in Escherichia coli BL21 using phosphoserine as substrate by Lineweaver-Burk plot analysis.

≈ marks a conversion by molar mass, not a printed value. Calls of active or inactive are those of the source.

What is called inhibition is the share of the control response that was lost under treatment. As a reminder, the MIC is the smallest concentration in the dilution series that meets the test's criterion for growth inhibition. Higher therefore signals weaker potency. A word on the Ki: it is the equilibrium dissociation constant of an inhibitor or competing ligand from its target. Broadly, the IC50 is the concentration at which inhibition is half-maximal. `CCC(=O)c1c(Nc2cccc(Cl)c2Cl)[nH]c2c(Cl)ccc([N+](=O)[O-])c2c1=O`: the inhibition in test [1] amounted to 97.1%. Inhibition of growth in test [2] (MIC) required 0.05 mg/L (≈ 0.113 µM). The Ki in test [3] is 2 µM. The IC50 in test [4] turned out to be 5.5 µM.
For the compound `O=C(c1c(Nc2cc(F)cc(F)c2)[nH]c2c(Cl)ccc([N+](=O)[O-])c2c1=O)C1CC1`, the inhibition in test [1] came out at 96.2%. The inhibition result in test [5] is “Active”. The same compound returned an MIC in test [2] of 0.006 mg/L (≈ 0.0143 µM). Moreover, the Ki in test [3] came out at 1 µM. Also, the IC50 in test [4] was 2.8 µM.

Source of the values: ChEMBL document CHEMBL2010789, “Identification of 3-acyl-2-phenylamino-1,4-dihydroquinolin-4-one derivatives as inhibitors of the phosphatase SerB653 in Porphyromonas gingivalis, implicated in periodontitis” (Bioorg Med Chem Lett, 2012).
